How the values were obtained:
Test in all cases: Greenhouse postemergence herbicidal safening trial, visual injury after 20-22 d
wild buckwheat (POLCO) = assay type: in vivo, Polygonum convolvulus
Text: (§1) Greenhouse Trial Methodology—Evaluation of Postemergence Herbicidal Safening in Crops
(§2) Seeds of the desired test plant species were planted in a 90:10% v/v (volume/volume) mixture of PRO-MIX® BX (Premier Tech Horticulture, Quakertown, PA, USA) and PROFILE® GREENS GRADE™ (Profile Products LLC, Buffalo Grove, IL, USA) planting mixture, which typically has a pH of 5.2 to 6.2 and an organic matter content of at least 50 percent, in plastic pots with a surface area of 103.2 square centimeters (cm^2). When required to ensure good germination and healthy plants, a fungicide treatment and/or other chemical or physical treatment was applied. The plants were grown for 7-36 days (d) in a greenhouse with an approximate 14-hour (h) photo-period which was maintained at about 23° C. during the day and 22° C. during the night. Nutrients and water were added on a regular basis and supplemental lighting was provided with overhead metal halide 1000-Watt lamps as necessary. The plants were employed for testing when they reached the second or third true leaf stage.
(§3) Emulsifiable concentrates of each of each pyridine carboxylate herbicide (Compound A or Compound B) were prepared at 100 grams acid equivalent per liter (g ae/L). An aliquot of each emulsifiable concentrate was placed in a 25 mL glass vial and diluted with an aqueous mixture of 1.25% (v/v) ACTIROB® B esterified rapeseed oil (Bayer Crop Science, Research Triangle Park, NC, USA) or MSO® Concentrate with LECI-TECH® methylated soybean oil (Loveland Products, Loveland, CO, USA) to obtain concentrated stock solutions at the highest application rate for each herbicide, based upon a 12 milliliter (mL) application volume at a rate of 187 liters per hectare (L/ha). The concentrated stock solutions were further diluted with an aqueous mixture of 1.25% v/v ACTIROB® B or MSO® Concentrate with LECI-TECH® to obtain stock solutions at reduced application rates for each herbicide. Spray solutions of the herbicide combinations (Compound A or Compound B plus safener) were prepared by adding weighed amounts or aliquots of the azole carboxylate safener to the stock solutions of Compound A or Compound B to form 12-mL spray solutions in two-way combinations.
(§4) The spray solutions were applied to the plant material with an overhead Mandel track sprayer equipped with 8002E nozzles calibrated to deliver 187 L/ha over an application area of 0.503 square meters (m^2) at a spray height of 18 inches (43 centimeters (cm)) above the average plant canopy. Control plants were sprayed in the same manner with the solvent blank. All herbicide (component a) application rates are given as “g ae/ha” and all safener (component b) application rates are given as “g ai/ha.”
(§5) The treated plants and control plants were placed in a greenhouse as described above and watered by sub-irrigation to prevent wash-off of the test compounds. After 20-22 d, the condition of the test plants as compared with that of the control plants was determined visually and scored on a scale of 0 to 100 percent where 0 corresponds to no injury and 100 corresponds to complete kill.

maize (ZEAMX) = assay type: in vivo, Zea mays
Text: as §1, §2, §3, §4, §5

Johnson grass (SORHA) = assay type: in vivo, Sorghum halepense
Text: as §1, §2, §3, §4, §5

winter rape (BRSNW) = assay type: in vivo, Brassica napus
Text: as §1, §2, §3, §4, §5

barnyardgrass (ECHCG) = assay type: in vivo, Echinochloa crus-galli
Text: as §1, §2, §3, §4, §5

giant foxtail (SETFA) = assay type: in vivo, Setaria faberi
Text: as §1, §2, §3, §4, §5

blackgrass (ALOMY) = assay type: in vivo, Alopecurus myosuroides
Text: as §1, §2, §3, §4, §5

Canada thistle (CIRAR) = assay type: in vivo, Cirsium arvense
Text: as §1, §2, §3, §4, §5

kochia (KCHSC) = assay type: in vivo, Kochia scoparia
Text: as §1, §2, §3, §4, §5

[1] = system: herbicide-resistant kochia (KCHSC-R); assay type: in vivo, Kochia scoparia
Text: as §1, §2, §3, §4, §5

common sunflower (HELAN) = assay type: in vivo, Helianthus annuus
Text: as §1, §2, §3, §4, §5

spring barley (HORVS) = assay type: in vivo, Hordeum vulgare; details: applied alone
Text: as §1, §2, §3, §4, §5

large crabgrass (DIGSA) = assay type: in vivo, Digitaria sanguinalis
Text: as §1, §2, §3, §4, §5

Measured: % visual injury Ob

CCOC(=O)C1=NN(c2ccc(Cl)cc2Cl)C(C)(C(=O)OCC)C1 (stereo not shown) [Mefenpyr-diethyl, mefenpyr-diethyl]
0%: wild buckwheat (POLCO); Mefenpyr-diethyl 20 g/ha | wild buckwheat (POLCO); Mefenpyr-diethyl 40 g/ha | wild buckwheat (POLCO); Mefenpyr-diethyl 80 g/ha | maize (ZEAMX); Mefenpyr-diethyl 20 g/ha | maize (ZEAMX); Mefenpyr-diethyl 40 g/ha | maize (ZEAMX); Mefenpyr-diethyl 80 g/ha | maize (ZEAMX); applied alone, 20 g/ha | maize (ZEAMX); applied alone, 40 g/ha | maize (ZEAMX); applied alone, 80 g/ha | maize (ZEAMX); applied alone, 120 g/ha | Johnson grass (SORHA); Mefenpyr-diethyl 20 g/ha | Johnson grass (SORHA); Mefenpyr-diethyl 40 g/ha | Johnson grass (SORHA); Mefenpyr-diethyl 80 g/ha | winter rape (BRSNW); Mefenpyr-diethyl 20 g/ha | winter rape (BRSNW); Mefenpyr-diethyl 40 g/ha | winter rape (BRSNW); Mefenpyr-diethyl 80 g/ha | barnyardgrass (ECHCG); Mefenpyr-diethyl 20 g/ha | barnyardgrass (ECHCG); Mefenpyr-diethyl 40 g/ha | barnyardgrass (ECHCG); Mefenpyr-diethyl 80 g/ha | giant foxtail (SETFA); Mefenpyr-diethyl 20 g/ha | giant foxtail (SETFA); Mefenpyr-diethyl 40 g/ha | giant foxtail (SETFA); Mefenpyr-diethyl 80 g/ha | blackgrass (ALOMY); Mefenpyr-diethyl 20 g/ha | blackgrass (ALOMY); Mefenpyr-diethyl 40 g/ha | blackgrass (ALOMY); Mefenpyr-diethyl 80 g/ha | Canada thistle (CIRAR); Mefenpyr-diethyl 20 g/ha | Canada thistle (CIRAR); Mefenpyr-diethyl 40 g/ha | Canada thistle (CIRAR); Mefenpyr-diethyl 80 g/ha | kochia (KCHSC); Mefenpyr-diethyl 20 g/ha | kochia (KCHSC); Mefenpyr-diethyl 40 g/ha | kochia (KCHSC); Mefenpyr-diethyl 80 g/ha | [1]; Mefenpyr-diethyl 20 g/ha | [1]; Mefenpyr-diethyl 40 g/ha | [1]; Mefenpyr-diethyl 80 g/ha | common sunflower (HELAN); Mefenpyr-diethyl 20 g/ha | common sunflower (HELAN); Mefenpyr-diethyl 40 g/ha | common sunflower (HELAN); Mefenpyr-diethyl 80 g/ha | common sunflower (HELAN); applied alone, 20 g/ha | common sunflower (HELAN); applied alone, 40 g/ha | common sunflower (HELAN); applied alone, 80 g/ha | common sunflower (HELAN); applied alone, 120 g/ha | spring barley (HORVS); 10 g/ha | spring barley (HORVS); 20 g/ha | spring barley (HORVS); 40 g/ha | spring barley (HORVS); 80 g/ha | spring barley (HORVS); 120 g/ha | large crabgrass (DIGSA); Mefenpyr-diethyl 20 g/ha | large crabgrass (DIGSA); Mefenpyr-diethyl 40 g/ha | large crabgrass (DIGSA); Mefenpyr-diethyl 80 g/ha
